The values below come from patent US8039514B2, “Sulfonamide compounds and use thereof” (Asahi Kasei Pharma Corporation, priority 2008, dated 2011).

Bounds are passed on as bounds.

The target of this test is T1, human calcium-sensing receptor (CaSR) (Homo sapiens, UniProt P41180).
T1 construct: expressed in transfected cells
T1 sequence (P41180 20-1078): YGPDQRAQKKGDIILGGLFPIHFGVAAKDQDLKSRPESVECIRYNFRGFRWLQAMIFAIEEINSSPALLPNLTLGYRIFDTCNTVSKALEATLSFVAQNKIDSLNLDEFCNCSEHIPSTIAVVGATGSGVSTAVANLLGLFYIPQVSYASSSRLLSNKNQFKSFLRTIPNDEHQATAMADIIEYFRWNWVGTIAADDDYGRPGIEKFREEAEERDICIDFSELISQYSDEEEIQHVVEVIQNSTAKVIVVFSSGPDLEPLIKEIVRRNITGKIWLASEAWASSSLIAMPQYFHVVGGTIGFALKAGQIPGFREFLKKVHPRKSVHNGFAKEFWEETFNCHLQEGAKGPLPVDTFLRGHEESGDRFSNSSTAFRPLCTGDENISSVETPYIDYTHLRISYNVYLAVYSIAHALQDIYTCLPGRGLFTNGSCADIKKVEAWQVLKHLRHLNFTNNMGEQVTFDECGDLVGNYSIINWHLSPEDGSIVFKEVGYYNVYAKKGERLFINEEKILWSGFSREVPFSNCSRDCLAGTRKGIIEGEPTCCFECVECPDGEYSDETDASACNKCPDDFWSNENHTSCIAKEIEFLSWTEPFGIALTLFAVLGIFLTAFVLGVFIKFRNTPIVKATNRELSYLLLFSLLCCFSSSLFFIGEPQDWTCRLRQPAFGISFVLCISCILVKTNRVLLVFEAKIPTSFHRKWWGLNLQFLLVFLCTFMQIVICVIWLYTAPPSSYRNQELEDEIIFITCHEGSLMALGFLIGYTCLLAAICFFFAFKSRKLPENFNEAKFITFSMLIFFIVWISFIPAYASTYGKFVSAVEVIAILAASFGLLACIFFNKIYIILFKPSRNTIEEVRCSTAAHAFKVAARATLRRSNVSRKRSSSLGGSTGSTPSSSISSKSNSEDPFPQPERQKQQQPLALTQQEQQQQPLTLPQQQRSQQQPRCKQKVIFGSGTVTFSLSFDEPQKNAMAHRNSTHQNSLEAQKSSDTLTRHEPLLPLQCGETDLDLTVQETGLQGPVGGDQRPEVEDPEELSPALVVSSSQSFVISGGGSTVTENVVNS
Briefly: intracellular Ca assay, CaSR antagonist activity in HEK293/hCaSR cells. The settings on record: Fura2-AM, inhibition of response to calcium chloride ligand solution, read-out: IC50 values according to the intracellular Ca assay (CaSR antagonist activity). The format is cell-based. As for the experimental part: HEK293 cells stably expressing human calcium-sensing receptor (CaSR) (termed HEK293/hCaSR cells) were used. HEK293/hCaSR cells were cultured in a culture medium [DMEM medium containing 0.5 mg/mL Geneticin, 50 Unit/mL penicillin, 50 μg/mL streptomycin and 10% fetal bovine serum (FBS), all manufactured by Invitrogen] to semiconfluent in an incubator at 37° C. under 5% carbon dioxide atmosphere.
Cultured cells were washed with phosphate buffered saline (PBS(−), manufactured by Dainippon Sumitomo Pharmaceutical Company) which had been prewarmed to 37° C., added with PBS(−) containing 10 mM ethylenediamine tetraacetic acid (EDTA), and then incubated in an incubator at 37° C. for 10 minutes. After adding the culture medium to separate the cells, cell suspension was transferred to a centrifuge tube. Cells were collected by centrifuge at 1,500 rpm for 3 minutes, and resuspended in Ca assay buffer [20 mM HEPES buffer (pH 7.4), 115 mM sodium chloride, 5.4 mM potassium chloride, 0.8 mM magnesium chloride, 0.8 mM calcium chloride, 13.8 mM D(+)-glucose (all manufactured by Wako Pure Chemicals) and 0.1% bovine serum albumin (manufactured by SIGMA)] containing 0.2% Pluronic F-127 (manufactured by Molecular Probes) and […] Fura2-AM (manufactured by DOJINDO LABORATORIES) to obtain a cell suspension of 5×10^6 cells/mL. After incubating at 37° C. for 30 minutes, the cells were washed twice with the Ca assay buffer and suspended in the same buffer to obtain a cell suspension of 1×10^6 cells/60 μL. 60 μL of the cell suspension was aliquoted to each well of a 96 well UV microplate (manufactured by Corning Co.) to give a cell plate.
The test compound was diluted with the Ca assay buffer to five times the final concentration and then 80 μL of the diluted compound was applied to each well of a 96 well round bottomed microplate (manufactured by Corning Co.) to give a sample plate. 80 μL of the Ca assay buffer containing 7.5 mM calcium chloride (i.e., ligand solution) was applied to each well of a 96 well round bottomed microplate to give a ligand plate. Then, thus prepared sample plate, ligand plate, and the cell plate were placed in Functional Drug Screening System (FDSS) 4000 (manufactured by Hamamatsu Photonics K.K.) which had been preswitched on and prewarmed to 37° C. Measurements were then carried out as follows. After incubating the cell plate for 180 seconds, fluorescence intensity was measured every two seconds (excitation wavelength; 340 nm and 380 nm, measurement wavelength; 500 nm). After the measurement for 40 seconds, 20 μL of the test compound solution from the sample plate was added to the cell plate, followed by continuous measurement for 160 seconds. Then, 20 μL of the ligand solution from the ligand plate was added to the cell plate, followed by continuous measurement for 100 seconds.
Amount of change in intracellular Ca concentration is indicated as a peak height of the ratio of the fluorescence intensity with excitation of 340 nm and 380 nm (i.e., fluorescence intensity with excitation at 340 nm/fluorescence intensity with excitation at 380 nm) that is obtained from the difference between the maximum ratio after adding the ligand solution and the ratio before adding the ligand solution. Further, when the peak height obtained from the Ca assay buffer containing no test compound has inhibition ratio of 0% while the peak height obtained from the Ca assay buffer containing no calcium chloride as a ligand solution has inhibition ratio of 100%, inhibition ratio for each test compound (i.e., CaSR antagonist activity) was calculated.
`CN(C[C@H](O)CNC(C)(C)Cc1ccc2ccccc2c1)S(=O)(=O)c1cccc(-c2cccc(C(=O)O)c2)c1` [Exp. 3-5, (R)-3′-(N-(2-hydroxy-3-(2-methyl-1-(naphthalen-2-yl)propan-2-ylamino)propyl)-N-methylsulfamoyl)biphenyl-3-carboxylic acid]: the IC50 is at most 300 nM. Regarding `CN(C[C@H](O)CNC(C)(C)CCCc1ccccc1)S(=O)(=O)c1ccc(-c2cccc(CCC(=O)O)c2)c(Cl)c1` [Exp. 3-185, (R)-3-(2′-chloro-4′-(N-(2-hydroxy-3-(2-methyl-5-phenylpentan-2-ylamino)propyl)-N-methylsulfamoyl)biphenyl-3-yl)propionic acid], the IC50 was at most 300 nM. `CCc1cc(-c2ccc(CCCC(=O)O)cc2)ccc1S(=O)(=O)N(C)C[C@H](O)CNC(C)(C)CCCc1ccccc1` [Exp. 5-77, (R)-4-(3′-ethyl-4′-(N-(2-hydroxy-3-(2-methyl-5-phenylpentan-2-ylamino)propyl)-N-methylsulfamoyl)biphenyl-4-yl)butanoic acid]: the IC50 is at most 300 nM.

As for `CCc1cc(-c2ccc(CCC(=O)O)cc2Cl)ccc1S(=O)(=O)N(C)C[C@H](O)CNC(C)(C)CC1Cc2ccccc2C1` [Exp. 5-16, (R)-3-(2-chloro-4′-(N-(3-(1-(2,3-dihydro-1H-inden-2-yl)-2-methylpropan-2-ylamino)-2-hydroxypropyl)-N-methylsulfamoyl)-3′-ethylbiphenyl-4-yl)propionic acid], the IC50 is at most 300 nM.

`Cc1ccc(CC(C)(C)NC[C@@H](O)CN(C)S(=O)(=O)c2cccc(-c3cccc(C(=O)O)c3)c2)cc1F` [Exp. 3-63, (R)-3′-(N-(3-(1-(3-fluoro-4-methylphenyl)-2-methylpropan-2-ylamino)-2-hydroxypropyl)-N-methylsulfamoyl)biphenyl-3-carboxylic acid]: the IC50 was 1000 to 3000 nM.

As to `Cc1cc(-c2cc(C(F)(F)F)cc(S(=O)(=O)N(C)C[C@H](O)CNC(C)(C)CC3Cc4ccccc4C3)c2)ccc1C(=O)O` [Exp. 3-197, (R)-3′-(N-(3-(1-(2,3-dihydro-1H-inden-2-yl)-2-methylpropan-2-ylamino)-2-hydroxypropyl)-N-methylsulfamoyl)-3-methyl-5′-(trifluoromethyl)biphenyl-4-carboxylic acid], the IC50 is at most 300 nM. Take `CN(C[C@H](O)CNC(C)(C)CC1Cc2ccccc2C1)S(=O)(=O)c1ccc(CCCCCC(=O)O)c(C(F)(F)F)c1` [Exp. 10-14, (R)-6-(4-(N-(3-(1-(2,3-dihydro-1H-inden-2-yl)-2-methylpropan-2-ylamino)-2-hydroxypropyl)-N-methylsulfamoyl)-2-(trifluoromethyl)phenyl)hexanoic acid]: the IC50 is at most 300 nM. As for `CN(C[C@H](O)CNC(C)(C)Cc1ccc2ccccc2c1)S(=O)(=O)Cc1ccc(-c2cccc(C=CC(=O)O)c2)cc1` [Exp. 3-91, (R)-3-(4′-((N-(2-hydroxy-3-(2-methyl-1-(naphthalen-2-yl)propan-2-ylamino)propyl)-N-methylsulfamoyl)methyl)biphenyl-3-yl)acrylic acid], the IC50 was 1000 to 3000 nM. On to `CN(C[C@H](O)CNC(C)(C)CC1Cc2ccccc2C1)S(=O)(=O)c1cccc(-c2ccc(C(=O)O)cc2F)c1` [Exp. 3-55, (R)-3′-(N-(3-(1-(2,3-dihydro-1H-inden-2-yl)-2-methylpropan-2-ylamino)-2-hydroxypropyl)-N-methylsulfamoyl)-2-fluorobiphenyl-4-carboxylic acid], for which the IC50 was at most 300 nM. Under `CN(C[C@H](O)CNC(C)(C)CC1Cc2ccccc2C1)S(=O)(=O)c1ccc(-c2cc(CCC(=O)O)ccc2F)cc1C(F)(F)F` [Exp. 5-18, (R)-3-(4′-(N-(3-(1-(2,3-dihydro-1H-inden-2-yl)-2-methylpropan-2-ylamino)-2-hydroxypropyl)-N-methylsulfamoyl)-6-fluoro-3′-(trifluoromethyl)biphenyl-3-yl)propionic acid] stands at most 300 nM; under `Cc1c(C(=O)O)cccc1-c1cccc(S(=O)(=O)N(C)C[C@H](O)CNC(C)(C)CC2Cc3ccccc3C2)c1` [Exp. 3-92, (R)-3′-(N-(3-(1-(2,3-dihydro-1H-inden-2-yl)-2-methylpropan-2-ylamino)-2-hydroxypropyl)-N-methylsulfamoyl)-2-methylbiphenyl-3-carboxylic acid], at most 300 nM. For the molecule `CN(C[C@H](O)CNC(C)(C)CCCc1ccccc1)S(=O)(=O)c1ccc(-c2ccc(CCC(=O)O)cc2)c(Cl)c1` [Exp. 3-114, (R)-3-(2′-chloro-4′-(N-(2-hydroxy-3-(2-methyl-5-phenylpentan-2-ylamino)propyl)-N-methylsulfamoyl)biphenyl-4-yl)propionic acid], the IC50 was at most 300 nM. For the molecule `CN(C[C@H](O)CNC(C)(C)CC1Cc2ccccc2C1)S(=O)(=O)c1cccc(-c2cccc(C(=O)O)c2F)c1` [Exp. 3-201, (R)-3′-(N-(3-(1-(2,3-dihydro-1H-inden-2-yl)-2-methylpropan-2-ylamino)-2-hydroxypropyl)-N-methylsulfamoyl)-2-fluorobiphenyl-3-carboxylic acid], the IC50 is at most 300 nM. Under `CN(C[C@H](O)CNC(C)(C)CC1Cc2ccccc2C1)S(=O)(=O)c1cccc(-c2ccc(OCC(=O)O)c(Cl)c2)c1` [Exp. 3-223, (R)-2-(3-chloro-3′-(N-(3-(1-(2,3-dihydro-1H-inden-2-yl)-2-methylpropan-2-ylamino)-2-hydroxypropyl)-N-methylsulfamoyl)biphenyl-4-yloxy)acetic acid] stands at most 300 nM; under `CN(C[C@H](O)CNC(C)(C)CC1Cc2ccccc2C1)S(=O)(=O)c1ccc(-c2ccc(CCC(=O)O)c(F)c2)c(Cl)c1` [Exp. 5-59, (R)-3-(2′-chloro-4′-(N-(3-(1-(2,3-dihydro-1H-inden-2-yl)-2-methylpropan-2-ylamino)-2-hydroxypropyl)-N-methylsulfamoyl)-3-fluorobiphenyl-4-yl)propionic acid], at most 300 nM; under `CN(C[C@H](O)CNC(C)(C)Cc1ccc2ccccc2c1)S(=O)(=O)c1ccc(-c2cccc(C(=O)O)c2)cc1` [Exp. 3-30, (R)-4′-(N-(2-hydroxy-3-(2-methyl-1-(naphthalen-2-yl)propan-2-ylamino)propyl)-N-methylsulfamoyl)biphenyl-3-carboxylic acid], at most 300 nM.

In general, IC50 refers to the concentration that gives 50% inhibition.
